Results on one sequence are retold here after US7893199B2, “Peptides having neutrophil-stimulating activity” (National University Corporation Gunma University, priority 2006, dated 2011).

This assay relates to HL-60 cells differentiated into the neutrophil-like cells. Description: β-hexosaminidase-secreting activity of neutrophil-like differentiated HL-60 cells. The class given is cell-based, human. The conditions noted are these: differentiated HL-60 cells; read-out: EC50, β-hexosaminidase-secreting activity. The method in brief: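 HL-60 cells were differentiated with 500 μM db-cAMP for 3 days at 37 °C, then stimulated with peptide for 10 min in HBHS/0.1% BSA, pH 7.4, containing 5 μg/ml cytochalasin B and DNase I. Released β-hexosaminidase was read at 405 nm after p-nitrophenyl-N-acetylglucosaminide hydrolysis (pH 4.5, 37 °C, 1 h). Secretion is expressed relative to 10 μM fMLP, with total enzyme from 0.05% Triton X-100 lysis.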

Where no end group is shown, it is not given here.

For orientation: EC50 means the midpoint of the concentration-response curve. Turning to MLWNLLALHQIGQRTISTASHRH [No. 019], the EC50 came to 200 nM.
